Where two headings read alike, the source gives them in different places.
How the values were obtained:
Human NSCLC A549 cells = experiment: Cell proliferation assays (MTT, direct cell counting); format: cell-based; settings: A549, wild-type EGFR, KRas-G12S; three days treatment
Protocol: Cell Proliferation Assays—
First, MTT proliferation assay was carried out using cell growth determination kit according to manufacturer instructions (Sigma). Human NSCLC A549 cells which are expressing wild-type EGFR with KRas-G12S activation mutation were studied in these experiments. […] Medium was changed daily for three days, and cells were stained with MTT and DAPI when indicated.
Second, direct cells counting assays were also performed as follows. Microscopic images of 0.317 mm^2 area each well were acquired for MTT stained cells and cells were counted using ImageJ (NIH). […] Alternatively, the cells were stained with DAPI and microscopic images of whole wells were acquired using DeltaVision system (Applied Precision). Cells were counted using Particle Tracker PlugIn for ImageJ as above (FIG. 13).

[1] = biological target: T1, Sec7 domain of cytohesin-2 (Homo sapiens, UniProt Q99418); experiment: Tryptophan fluorescence-based GTPγS binding (GEF-activity) assay of Sec7 domain; format: biochemical; settings: purified Sec7 domain; truncated [Δ17]Arf1 as substrate; read-out: IC50, inhibition of enzymatic GEF-activity of Sec7 with [Δ17]Arf1
T1 construct: The Sec7 domain of human cytohesin-2 (61-252aa) was expressed in BL21/DE3 cells; GST (N, cleaved yes); made in house; host or cells: E. coli BL21/DE3
T1 sequence (Q99418 61-252): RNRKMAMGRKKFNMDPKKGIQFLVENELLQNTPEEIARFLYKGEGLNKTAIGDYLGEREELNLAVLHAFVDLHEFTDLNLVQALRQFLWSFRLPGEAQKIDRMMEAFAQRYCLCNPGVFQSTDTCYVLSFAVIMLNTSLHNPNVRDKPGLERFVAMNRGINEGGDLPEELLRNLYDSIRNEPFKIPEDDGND
From the text: b) Tryptophan Fluorescence-Based GTPγS Binding Assay.
In this assay, exchange is followed in real time. […] These are soluble in both GDP and GTP bound forms (myr Arf-GTP requires a hydrophobic surface for stability) allowing exchange to occur in the absence of lipid or detergent, which is desirable because lipid or detergent can scatter light and possibly confound interpretation of changes in fluorescence. To monitor tryptophan fluorescence, the fluorescent spectra of [Δ17]Arf1 in GDP-bound and GTPγS-bound forms were obtained at an excitation wavelength of 285 nm using a PTI spectrofluorimeter. […] Measurements were performed at 37° C. in 50 mM HEPES-KOH, 100 mM KCl, 1 mM MgCl2, 1 mM DTT, 10 μM GTPγS, 1 μM [Δ17]Arf1 or [Δ13]Arf6 and 10 nM Sec7-domain. […] Data were fitted by single exponential curve and analyzed using Microsoft Excel.
This assay allows real-time measurements of the GEF Sec7 domain-induced nucleotide exchange. [Δ17]Arf1 and [Δ13]Arf6, which are soluble in the GTP-bound form, were used as substrates, thereby eliminating the need for phospholipid or detergent in the assay. […] Activation of [Δ17]Arf1 or [Δ13]Arf6 from the GDP-bound form to the GTPγS-bound form was monitored by tryptophan fluorescence (emission/excitation wavelengths of 285/335 nm) (FIG. 3A).

[2] = test system: gefitinib-resistant NSCLC H460 cells; settings: Bill et al. 2012; cited from earlier work
lung cancer cells = settings: SecinH3 or cytohesin-2 knock-down; Bill et al.; cited from earlier work
EGFR/ErbB-signaling = settings: SecinH3 or cytohesin-2 knock-down; Bill et al.; cited from earlier work
tumor xenografts = settings: SecinH3 or cytohesin-2 knock-down; Bill et al.; cited from earlier work
PC-9 xenografts = settings: Bill et al.; cited from earlier work
[3] = test system: gefitinib-resistant NSCLC A549 cells; settings: Bill et al. 2012; cited from earlier work
H460 xenografts = settings: Bill et al.; cited from earlier work
cytohesin-2 = biological target: T2, cytohesin-2 (Homo sapiens, UniProt Q99418); experiment: Radiolabel-based GEF-activity assay ([35S]-GTPγS binding) of full-length cytohesin-2 with myr-Arf1 or myr-Arf6; format: biochemical
T2 construct: steady-state enzymatic GEF-activity analysis of full-length cytohesin-2 or Sec7 domain with Arf1 and Arf6; made in house; host or cells: E. coli BL21DE3
T2 sequence (Q99418 1-400): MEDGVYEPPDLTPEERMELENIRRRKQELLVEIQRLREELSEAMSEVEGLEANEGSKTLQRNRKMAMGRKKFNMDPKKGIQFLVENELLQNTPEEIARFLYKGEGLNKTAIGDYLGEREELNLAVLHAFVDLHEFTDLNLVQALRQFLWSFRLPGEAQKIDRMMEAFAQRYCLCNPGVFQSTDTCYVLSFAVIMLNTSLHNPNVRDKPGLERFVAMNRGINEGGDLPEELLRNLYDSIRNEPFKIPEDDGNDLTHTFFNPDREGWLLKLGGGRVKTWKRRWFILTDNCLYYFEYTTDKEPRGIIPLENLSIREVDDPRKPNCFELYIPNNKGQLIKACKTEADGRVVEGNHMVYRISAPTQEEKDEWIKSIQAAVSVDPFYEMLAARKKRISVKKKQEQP
Protocol: Two assays were used to determine the GDP/GTP-exchange activity of both full-length cytohesin-2 and Sec7 domain.
a) Radiolabel-Based Assay.
The lipids were dissolved in chloroform. […] Proteins were trapped on nitrocellulose filters.
To test the potential signaling between V-ATPase and cytohesin-2/Arf GTP-binding proteins, a GEF-activity assay was established for cytohesin-2 (wt) and myristoylated myr-Arf6 (wt) and myr-Arf1 (wt) GTP-binding proteins (FIG. 2A). Human Arf1 was co-expressed with yeast N-myristoyltransferase in E. coli BL21/DE3 strain. Recombinant myr-Arf1 was purified from the E. coli lysate (A1) using an AKTApurifier equipped with HiTrapQ, Superdex200 columns (A2), and Phenyl Sepharose HP column (A3). Human Arf6 was also co-expressed with yeast N-myristoyltransferase in E. coli BL21/DE3 strain. Recombinant myr-Arf6 was extracted from insoluble fraction using Triton X-100 (B1). The extract was precipitated by 35% ammonium sulfate and myr-Arf6 purified with HiTrapQ column (B2). […] Several soluble, cell permeable and fluorescently labeled a2N1-17 derived peptides were synthesized, which were used in the current GEF-activity and structural studies in vitro.

COc1nc(-c2ccc3c(c2)OCO3)n(-c2ccc(NC(=O)CSc3ccccc3)cc2)n1 [SecinH3]
inhibition of proliferation of human lung cancer A549 cells (Human NSCLC A549 cells): anti-proliferative action | IC50 [1]: 6.9 µM | proliferation of gefitinib-resistant NSCLC H460 cells [2]: efficiently reduced | cancer cell proliferation in vitro (lung cancer cells): suppression | EGFR/ErbB-signaling (EGFR/ErbB-signaling): reduction | growth of tumor xenografts in nude mice model in vivo (tumor xenografts): reduction of growth | action in vivo in mice bearing PC-9 xenografts (PC-9 xenografts): anti-proliferative and pro-apoptotic action | proliferation of gefitinib-resistant NSCLC A549 cells [3]: efficiently reduced | action in vivo in mice bearing H460 xenografts (H460 xenografts): anti-proliferative and pro-apoptotic action | IC50 (cytohesin-2; myr-Arf1 as substrate, azolectin, read-out: IC50, inhibition of enzymatic GEF-activity of cytohesin-2 with myr-Arf1): > 150 µM | IC50 (cytohesin-2; myr-Arf6 as substrate, PIP2-containing liposomes, read-out: IC50, inhibition of enzymatic GEF-activity of cytohesin-2 with myr-Arf6): > 150 µM

From US20150118215A1, “Methods of Inhibiting Cell Proliferation” (The General Hospital Corporation, priority 2012, published 2015)
